We go through 38 compounds from US7645752B2, “Sulfonyl substituted 1H-indoles as ligands for the 5-hydroxytryptamine receptors” (Wyeth LLC, priority 2006, dated 2010).

Structures can show the parent of a compound that is named as a salt.

The first series deals with T1, human cloned 5-HT6 receptors (Homo sapiens, UniProt P50406).
T1 construct: expressed in transfected cells; host or cells: HeLa cells
T1 sequence (P50406 whole entry): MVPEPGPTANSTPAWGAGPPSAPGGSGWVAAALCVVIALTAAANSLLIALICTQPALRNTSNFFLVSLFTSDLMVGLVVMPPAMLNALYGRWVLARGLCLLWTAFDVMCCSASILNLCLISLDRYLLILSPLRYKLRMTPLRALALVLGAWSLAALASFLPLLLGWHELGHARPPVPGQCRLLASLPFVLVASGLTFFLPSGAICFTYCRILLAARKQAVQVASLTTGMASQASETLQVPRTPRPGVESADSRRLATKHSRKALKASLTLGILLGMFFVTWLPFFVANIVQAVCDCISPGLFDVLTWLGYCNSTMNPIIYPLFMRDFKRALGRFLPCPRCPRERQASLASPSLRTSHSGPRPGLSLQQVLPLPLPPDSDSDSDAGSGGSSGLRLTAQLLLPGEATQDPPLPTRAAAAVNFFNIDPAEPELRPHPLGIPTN
The series can be described thus: 5-HT6 binding affinity, [3H]-LSD displacement on membranes of Hela cells.
Conditions: not given
The method, then:
The affinity of test compounds for the 5-HT6 receptor is evaluated in the following manner. Cultured Hela cells expressing human cloned 5-HT6 receptors are harvested and centrifuged at low speed (1,000×g) for 10.0 min to remove the culture media. The harvested cells are suspended in half volume of fresh physiological phosphate buffered saline solution and recentrifuged at the same speed. This operation is repeated. The collected cells are then homogenized in ten volumes of 50 mM Tris.HCl (pH 7.4) and 0.5 mM EDTA. The homogenate is centrifuged at 40,000×g for 30.0 min and the precipitate is collected. The obtained pellet is resuspended in 10 volumes of Tris.HCl buffer and recentrifuged at the same speed. The final pellet is suspended in a small volume of Tris.HCl buffer and the tissue protein content is determined in aliquots of 10-25 microliter volumes. […] The volume of the suspended cell membranes is adjusted to give a tissue protein concentration of 1.0 mg/mL of suspension. The prepared membrane suspension (10 times concentrated) is aliquoted in 1.0 mL volumes and stored at −70° C. until used in subsequent binding experiments.
Binding experiments are performed in a 96 well microtiter plate format in a total volume of 200 microliters. […] The test compounds are added in 20.0 microliter volume.
The bound complex caught on the filter disk is allowed to air dry and the radioactivity is measured in a Packard TopCount® equipped with six photomultiplier detectors, after the addition of 40.0 microliter Microscint®-20 scintillant to each shallow well.
Binding in the presence of varying concentrations of test compound is expressed as a percentage of specific binding in the absence of test compound. The results are plotted as log % bound versus log concentration of the test compound.
`CC(C)NCCc1ccc2[nH]cc(S(=O)(=O)c3ccccc3)c2c1` [Example 3, N-{2-[3-(phenylsulfonyl)-1H-indol-5-yl]ethyl}propan-2-amine] came in with a Ki of 56.7 nM.

In turn, `CCCNCCc1ccc2[nH]cc(S(=O)(=O)c3ccccc3)c2c1` [Example 2, N-{2-[3-(phenylsulfonyl)-1H-indol-5-yl]ethyl}-N-propylamine] came in with a Ki of 34.7 nM.

Staying with this series, now noted: Table 1; 5-HT6 binding, at 1 micromole; read-out: % inhibition at 1 micromole.
`O=S(=O)(c1ccccc1)c1c[nH]c2cc(CCNC3CCCCC3)ccc12` [Example 94, N-{2-[3-(phenylsulfonyl)-1H-indol-6-yl]ethyl}cyclohexanamine]: the inhibition at 1 µM is 51%.

As for `CN(CCc1ccc2c(S(=O)(=O)c3ccccc3)c[nH]c2c1)C1CCCCC1` [Example 96, N-cyclohexyl-N-methyl-N-{2-[3-(phenylsulfonyl)-1H-indol-6-yl]ethyl}amine], the inhibition at 1 µM came to 75%.

Take `O=S(=O)(c1ccccc1)c1c[nH]c2cc(CCN3CCCCC3)ccc12` [Example 99, 3-(phenylsulfonyl)-6-(2-piperidin-1-ylethyl)-1H-indole]: the inhibition at 1 µM came out at 79%.

For the compound `CCC(CC)NCCc1ccc2c(S(=O)(=O)c3ccccc3)c[nH]c2c1` [Example 103, (1-Ethyl-propyl)-{2-[3-(phenylsulfonyl)-1H-indol-6-yl]-ethyl}-amine], the inhibition at 1 µM is 63%.

Turning to `CCNCCc1cccc2[nH]cc(S(=O)(=O)c3cccc(F)c3)c12` [Example 64, N-ethyl-N-{2-[3-(3-fluorophenylsulfonyl)-1H-indol-4-yl]ethyl}amine], the inhibition at 1 µM was 57%.

As for `O=S(=O)(c1cccc(F)c1)c1c[nH]c2cccc(CCNCC3CCCO3)c12` (centres unmarked) [Example 82, N-{2-[3-(3-fluorophenylsulfonyl)-1H-indol-4-yl]ethyl}-N-((tetrahydrofur-2-yl)methyl)amine], the inhibition at 1 µM amounted to 72%.

As for `CC(C)(C)CNCCc1ccc2c(S(=O)(=O)c3ccccc3)c[nH]c2c1` [Example 106, N-(2,2-dimethylpropyl)-N-{2-[3-(phenylsulfonyl)-1H-indol-6-yl]ethyl}amine], the inhibition at 1 µM is 67%.

As to `CC(C)NCCc1ccc2c(S(=O)(=O)c3ccccc3)c[nH]c2c1` [Example 90, N-{2-[3-(phenylsulfonyl)-1H-indol-6-yl]ethyl}propan-2-amine], the inhibition at 1 µM was 78%.

`O=S(=O)(c1cccc(F)c1)c1c[nH]c2cccc(CCN3CCCCC3)c12` [Example 75, 3-(3-fluorophenylsulfonyl)-4-(2-piperidin-1-ylethyl)-1H-indole]: the inhibition at 1 µM stood at 69%.

As for `CC(C)NCCc1cccc2[nH]cc(S(=O)(=O)c3cccc(F)c3)c12` [Example 66, N-{2-[3-(3-fluorophenylsulfonyl)-1H-indol-4-yl]ethyl}propan-2-amine], the inhibition at 1 µM came out at 58%.

With `O=S(=O)(c1ccccc1)c1c[nH]c2cc(CCN3CCNCC3)ccc12` [Example 101, 3-phenylsulfonyl-6-(2-piperazin-1-yl-ethyl)-1H-indole], the inhibition at 1 µM came out at 55%.

For `CCN(CC)CCc1cccc2[nH]cc(S(=O)(=O)c3cccc(F)c3)c12` [Example 73, N,N-diethyl-N-{2-[3-(3-fluorophenylsulfonyl)-1H-indol-4-yl]ethyl}amine], the inhibition at 1 µM was 78%.

As to `CCC(C)CNCCc1ccc2c(S(=O)(=O)c3ccccc3)c[nH]c2c1` (centres unmarked) [Example 104, {2-[3-(phenylsulfonyl)-1H-indol-6-yl]-ethyl}-(2-methyl-butyl)-amine], the inhibition at 1 µM was 69%.

Staying with this series, now noted: Table 1; [3H]-LSD 3.0 nM, Hela cell membranes; read-out: Ki (nM) @ 5-HT6 receptor.
Consider `O=S(=O)(c1ccccc1)c1c[nH]c2cc(CCNCC3CCCO3)ccc12` (centres unmarked) [Example 107, N-{2-[3-(phenylsulfonyl)-1H-indol-6-yl]ethyl}-N-((tetrahydrofur-2-yl)methyl)amine], for which the Ki stood at 85 nM.

On to `O=S(=O)(c1ccccc1)c1c[nH]c2ccc(CCNC3CC3)cc12` [Example 4, N-{2-[3-(phenylsulfonyl)-1H-indol-5-yl]ethyl}cyclopropanamine], for which the Ki worked out at 15 nM.

Regarding `CN(C)CCc1ccc2c(S(=O)(=O)c3ccccc3)c[nH]c2c1` [Example 86, N,N-dimethyl-N-{2-[3-(phenylsulfonyl)-1H-indol-6-yl]ethyl}amine], the Ki was found to be 41.3 nM.

In the case of `O=S(=O)(c1ccccc1)c1c[nH]c2ccc(CCNCc3ccccc3)cc12` [Example 6, N-benzyl-N-{2-[3-(phenylsulfonyl)-1H-indol-5-yl]ethyl}amine], the Ki stood at 24 nM.

Turning to `O=S(=O)(c1ccccc1)c1c[nH]c2c(CCN3CCCC3)cccc12` [Example 26, 3-(phenylsulfonyl)-7-(2-pyrrolidin-1-ylethyl)-1H-indole], the Ki is 18 nM.

As to `O=S(=O)(c1cccc(F)c1)c1c[nH]c2cccc(CCN3CCCC3)c12` [Example 74, 3-(3-fluorophenylsulfonyl)-4-(2-pyrrolidin-1-ylethyl)-1H-indole], the Ki is 72 nM.

Consider `O=S(=O)(c1ccccc1)c1c[nH]c2ccc(CCN3CCOCC3)cc12` [Example 11, 5-(2-morpholin-4-ylethyl)-3-(phenylsulfonyl)-1H-indole], for which the Ki was 39 nM.

Regarding `CCCNCCc1cccc2c(S(=O)(=O)c3ccccc3)c[nH]c12` [Example 20, N-{2-[3-(phenylsulfonyl)-1H-indol-7-yl]ethyl}-N-propylamine], the Ki was 9.1 nM.

As to `O=S(=O)(c1ccccc1)c1c[nH]c2ccc(CCN3CCCC3)cc12` [Example 9, 3-(phenylsulfonyl)-5-(2-pyrrolidin-1-ylethyl)-1H-indole], the Ki stood at 28 nM.

With `CNCCc1cccc2c(S(=O)(=O)c3ccccc3)c[nH]c12` [Example 19, N-methyl-N-{2-[3-(phenylsulfonyl)-1H-indol-7-yl]ethyl}amine], the Ki is 2.3 nM.

Consider `O=S(=O)(c1ccccc1)c1c[nH]c2c(CCN3CCOCC3)cccc12` [Example 28, 7-(2-morpholin-4-ylethyl)-3-(phenylsulfonyl)-1H-indole], for which the Ki was 99 nM.

Turning to `CCN(C)CCc1cccc2[nH]cc(S(=O)(=O)c3cccc(F)c3)c12` [Example 71, N-ethyl-N-methyl-N-{2-[3-(3-fluorophenylsulfonyl)-1H-indol-4-yl]ethyl}amine], the Ki amounted to 116 nM.

Consider `CC(NCCc1cccc2[nH]cc(S(=O)(=O)c3cccc(F)c3)c12)C(C)(C)C` (centres unmarked) [Example 80, N-{2-[3-(3-fluorophenylsulfonyl)-1H-indol-4-yl]ethyl}-N-(1,2,2-trimethylpropyl)amine], for which the Ki was 13 nM.

`NCCc1ccc2c(S(=O)(=O)c3ccccc3)c[nH]c2c1` [Example 109, {2-[3-(phenylsulfonyl)-1H-indol-6-yl]ethyl}amine]: the Ki was 10 nM.

Turning to `O=S(=O)(c1ccccc1)c1c[nH]c2cc(CCNC3CC3)ccc12` [Example 91, N-{2-[3-(phenylsulfonyl)-1H-indol-6-yl]ethyl}cyclopropanamine], the Ki is 41 nM.

Consider `CCN(C)CCc1cccc2c(S(=O)(=O)c3ccccc3)c[nH]c12` [Example 24, N-ethyl-N-methyl-N-{2-[3-(phenylsulfonyl)-1H-indol-7-yl]ethyl}amine], for which the Ki worked out at 11 nM.

Consider `O=S(=O)(c1ccccc1)c1c[nH]c2ccc(CCN3CCNCC3)cc12` [Example 13, 3-(phenylsulfonyl)-5-(2-piperazin-1-ylethyl)-1H-indole], for which the Ki came out at 68 nM.

Take `CCN(C)CCc1ccc2c(S(=O)(=O)c3ccccc3)c[nH]c2c1` [Example 95, N-ethyl-N-methyl-N-{2-[3-(phenylsulfonyl)-1H-indol-6-yl]ethyl}amine]: the Ki came to 118 nM.

The same series, now with this note: read-out: % inhibition at 1 micromole.
For the compound `CN(C)CCc1cccc2[nH]cc(S(=O)(=O)c3cccc(F)c3)c12` [Example 62, N,N-dimethyl-N-{2-[3-(3-fluorophenylsulfonyl)-1H-indol-4-yl]ethyl}amine], the inhibition at 1 µM was determined as 72%.

System in a further series: not given
Test: not given
Conditions: not given
Take `O=S(=O)(c1ccccc1)c1c[nH]c2cccc(CCNC3CCC3)c12` (as salt: hydrochloride) [Example 37, N-{2-[3-(phenylsulfonyl)-1H-indol-4-yl]ethyl}cyclobutanamine]: the melting point fell in the range of 95 to 103 °C.

Take `CNCCc1cccc2[nH]cc(S(=O)(=O)c3ccccc3)c12` (as salt: hydrochloride) [Example 32, N-methyl-N-{2-[3-(phenylsulfonyl)-1H-indol-4-yl]ethyl}amine]: the melting point is 168 to 170 °C.

`O=S(=O)(c1ccccc1)c1c[nH]c2c(CCN3CCNCC3)cccc12` (as salt: hydrochloride) [Example 30, 3-(phenylsulfonyl)-7-(2-piperazin-1-ylethyl)-1H-indole]: the melting point turned out to be 190 °C.

As to `CN(C)CCc1ccc2c(S(=O)(=O)c3ccccc3)c[nH]c2c1` (as salt: hydrochloride) [Example 86, N,N-dimethyl-N-{2-[3-(phenylsulfonyl)-1H-indol-6-yl]ethyl}amine], the melting point was in the range of 118 to 120 °C.

The term Ki denotes a dissociation constant, usually derived from enzyme kinetics or from competition with a known ligand. A word on the inhibition: it is the drop in the measured response relative to a control, in per cent. By melting point is commonly meant the temperature, or range, at which the solid turns liquid.
